Data reported in PubChem BioAssay (NCI).
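Interpolation was linear, between the two tested concentrations surrounding the appropriate level; five concentrations were tested over 48 hours in 96-well plates. The concentration for full growth arrest is given as TGI.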

What was measured:
Assay in all cases: NCI-60 cell line screen, 48 h
[1] = system: CAKI-1 renal
[2] = system: SW-620 colon
[3] = system: NCI-H460 lung
[4] = system: SK-MEL-2 melanoma
[5] = system: UACC-62 melanoma
[6] = system: MDA-MB-231 breast
[7] = system: IGROV1 ovarian
[8] = system: EKVX NSCLC
[9] = system: MOLT-4 leukemia
[10] = system: MCF7 breast
[11] = system: SK-MEL-5 melanoma
[12] = system: NCI-H226 lung
[13] = system: OVCAR-8 ovarian
[14] = system: MDA-N
[15] = system: MDA-MB-435
[16] = system: T-47D breast
[17] = system: NCI-H522 lung
[18] = system: RPMI-8226 leukemia
[19] = system: NCI/ADR-RES ovarian
[20] = system: SK-MEL-28 melanoma
[21] = system: HCC-2998 colon
[22] = system: SF-295 CNS
[23] = system: U251 CNS
[24] = system: SR leukemia
[25] = system: HCT-116 colon
[26] = system: ACHN renal
[27] = system: DU-145 prostate
[28] = system: K-562 leukemia
[29] = system: SN12C renal
[30] = system: SNB-19 CNS
[31] = system: A498 renal
[32] = system: RXF 393 renal
[33] = system: COLO 205 colon
[34] = system: SF-268 CNS
[35] = system: HOP-62 NSCLC
[36] = system: SNB-75 CNS
[37] = system: MALME-3M melanoma
[38] = system: KM12 colon
[39] = system: BT-549 breast
[40] = system: HL-60(TB) leukemia
[41] = system: PC-3 prostate
[42] = system: OVCAR-3 ovarian
[43] = system: LOX IMVI melanoma
[44] = system: UACC-257 melanoma
[45] = system: HT29 colon
[46] = system: NCI-H23 lung
[47] = system: HS 578T breast
[48] = system: TK-10 renal
[49] = system: OVCAR-4 ovarian
[50] = system: UO-31 renal
[51] = system: OVCAR-5 ovarian
[52] = system: HCT-15 colon
[53] = system: 786-0 renal
[54] = system: M14 melanoma
[55] = system: SK-OV-3 ovarian
[56] = system: CCRF-CEM leukemia
[57] = system: SF-539 CNS
[58] = system: A549 NSCLC

Measured: TGI

S=c1nc2sc3c(c2c(Nc2ccccc2)[nH]1)CCCC3
not listed: [54] | [55] | [56] | [57] | [58]
> 100 µM: all other assays above

CCNCC(O)COc1ccc2c(c1)[n+]([O-])nc(N)[n+]2[O-] (centres undefined)
27.3 µM: [43]
82.1 µM: [55]
56 µM: [9]
43.6 µM: [17]
69.8 µM: [5]
not listed: [3] | [21] | [32] | [37]
> 100 µM: all other assays above

CC(C)/C=N\N1C(N)=C(C#N)C(C#N)(C#N)C1C(C)C (centres undefined)
64.8 µM: [57]
93.2 µM: [56]
58.1 µM: [13]
69.8 µM: [14]
76.5 µM: [5]
82.8 µM: [19]
82.9 µM: [24]
92.3 µM: [39]
80 µM: [45]
91.7 µM: [40]
58.6 µM: [15]
not listed: [3]
> 100 µM: all other assays above
